Read-outs that look alike come from different tables or passages of the source.
Tests used:
[1] = Liver microsomal enzyme stability test; assay type: in vitro ADME; conditions: Human liver microsomes 0.5 mg/mL, 1 μM compound, 1 mM NADPH, 37° C.; for half-life at 1 μM: read-out: t1/2 (=0.693/k, min)
Description: An LC-MS/MS method, wherein A liquid phase method adopts a gradient elution method. Chromatographic Column: ACQUITY UPLC® BEH C18 (2.1 mm×50 mm, 1.7 μm); Flow Rate: 0.35 mL/min; Injection Volume: 1 μL (YS001), 3 μL (testosterone); Column Temperature: 40° C.; Automatic Sampler Temperature: 4° C.; Mobile Phase Compositions: mobile phase A: 0.1% formic acid water, and mobile phase B: acetonitrile. Mass spectrometry conditions adopt an ESI source, and positive ion and multiple reaction monitoring (MRM) modes were used for mass spectrometry analysis.
Liver microsome incubation samples were taken, in which 400 μL of an acetonitrile solution containing an internal standard (1 ng/mL loratadine) was added for a termination reaction. Even vortex mixing was conducted at 2,500 rpm. Centrifuging was conducted for 10 minutes at 20,000 rcf at 4° C. Supernatants were taken into clean lined tubes. Contents of prototype drugs were detected by LC-MS/MS.
Metabolic rate test: human liver microsomes were taken, unfrozen and thawed on ice, and gently shaken evenly. […] 80 μL of the above solution was pipetted, and pre-incubated for 5 minutes in a 37° C. water bath, then, 20 μL of a 5 mM NADPH solution was added, and incubating was conducted in a 37° C. water bath. […] After reaction for 0, 10, 30, 60, and 90 minutes, the reaction was terminated with 4 times the volume of acetonitrile (containing 1 ng/mL internal standard loratadine). Even vortex mixing was conducted. High-speed centrifuging was conducted for 10 minutes at 20,000 rcf at 4° C. Supernatants were taken for LC-MS/MS detection. Each incubation sample was subjected to a parallel test in triplicate. Positive control was metabolic samples of microsomes of corresponding species to a positive drug testosterone (1 μM). The reaction was terminated with 4 times the volume of acetonitrile (containing 1 ng/mL internal standard loratadine). Incubation time points were 0, 30, 60 minutes.
Analyst 1.6.3 software was used for data collecting. After integration parameters were optimized, target chromatographic peaks were automatically integrated, individual chromatographic peaks were not allowed to be integrated separately or manually, and retention time and a peak area were calculated. Data was collected by Analyst 1.6.3, and subjected to integration processing to obtain the retention time and the peak area, and a peak area ratio of an analyte to an internal standard was calculated. Then, Microsoft Office Excel was used for secondary processing to calculate a half-life period t1/2 and a clearance rate CLint thereof. A residual percentage (% Control) of tested compounds was calculated from a ratio of a concentration of a non-zero time point sample to a concentration of a zero-time sample. Ln (% Control) was plotted against incubation time and subjected to linear fitting. An elimination constant (ke, 1/min), an elimination half-life period (t1/2, min) and an in-vitro intrinsic clearance rate (CLint, μL/(mg·min)) of the tested compounds were calculated. T1/2=0.693/ke, CLint=ke/Cprotein (Note: ke is a slope, and Cprotein is a protein concentration.)

rP2X3 = biological target: T1, rP2X3 (Rattus norvegicus, UniProt P49654); assay: Inhibitory activity against P2X3 in rats (electrophysiological method); assay type: cell-based
T1 construct: expressed in transfected cells; host or cells: HEK293
T1 sequence (P49654 1-397): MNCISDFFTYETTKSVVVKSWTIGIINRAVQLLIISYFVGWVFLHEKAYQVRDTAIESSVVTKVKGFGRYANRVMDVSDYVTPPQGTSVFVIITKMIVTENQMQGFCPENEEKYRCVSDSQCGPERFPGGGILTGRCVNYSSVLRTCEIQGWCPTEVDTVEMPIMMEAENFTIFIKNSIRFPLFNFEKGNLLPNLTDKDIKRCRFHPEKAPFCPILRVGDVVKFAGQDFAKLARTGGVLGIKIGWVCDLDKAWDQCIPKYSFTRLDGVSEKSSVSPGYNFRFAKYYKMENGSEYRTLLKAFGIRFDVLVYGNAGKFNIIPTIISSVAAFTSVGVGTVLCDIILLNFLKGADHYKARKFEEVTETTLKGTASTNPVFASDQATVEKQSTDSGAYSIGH

[2] = In-vivo pharmacokinetic experiments on rats; set-up: species or system SD rats; conditions: for clearance / half-life / Cmax / Vd / Tmax / bioavailability: both sexes, SD, plasma; for Vd: read-out: Vss
Description: SD rats were used, half male and half female, which were administered with compounds by intravenous injection (3 mg/kg), intraperitoneal injection (10 mg/kg) or gavage (30 mg/kg) at different doses. At different time points after administration, blood was collected into EDTA blood sample collection tubes. Plasma was separated by centrifugation and stored at −20° C. pending analysis.
Standard curve and quality control sample preparation and processing: a compound stock solution was taken and diluted with 50% methanol water to make standard working solutions containing each compound concentration of 20 to 10,000 ng/mL, and 60, 600, 6,000 ng/mL quality control working solutions. 47.5 μL of blank rat plasma was taken, respectively, in which 2.50 μL of the standard curve working solutions and quality control working solutions were added to prepare standard curve samples with each compound concentration of 1.00 to 500.00 ng/mL and quality control samples with concentrations of 3.00, 30.00 and 300.00 ng/mL. 200 μL of acetonitrile (containing 5 ng/mL internal standard verapamil) was added into each sample. After vortex oscillation for 3 minutes, centrifuging was conducted for 15 minutes at 20,000 rcf at 4° C. Supernatants were taken for LC-MS/MS analysis.
Compound blood sample processing: 5 μL of plasma samples were taken. 45 μL of Blank rat plasma was added. 200 μL of Acetonitrile (containing 5 ng/mL internal standard verapamil) was added. After vortex oscillation for 3 minutes, centrifuging was conducted for 15 minutes at 20,000 rcf at 4° C. Supernatants were taken for LC-MS/MS analysis.

[3] = iv, Rat PK i.v 3 mg/kg, read-out: Cmax/Co
[4] = po, Rat PK p.o 30 mg/kg, read-out: Cmax

Row | Clint, microsome (=k/Cprotein, μL × min^−1 × mg^−1 proteins) [1] | ke (=−slope, min^−1) [1] [min⁻¹] | half-life at 1 μM [1] [min] | IC50 (rP2X3) [nM] | ACU ([2]; Rat PK i.v 3 mg/kg) [kg·ng·h/mL/mg] | ACU ([2]; Rat PK p.o 30 mg/kg) [kg·ng·h/mL/mg] | clearance ([2]; iv, Rat PK i.v 3 mg/kg) [mL/min/kg] | half-life ([2]; iv, Rat PK i.v 3 mg/kg) [h] | Cmax [2, 3] [ng/mL] | Vd ([2]; iv, Rat PK i.v 3 mg/kg) [L/kg] | Tmax ([2]; po, Rat PK p.o 30 mg/kg) [h] | bioavailability ([2]; po, Rat PK p.o 30 mg/kg) [%] | half-life ([2]; po, Rat PK p.o 30 mg/kg) [h] | Cmax [2, 4] [ng/mL] | Structure (SMILES)
1 | 3.8 μL × min^−1 × mg^−1 proteins | 0.0019 | 364 | 165 | 427.84 | 367.68 | 39.2 | 0.6 | 1750 | 2.05 | 1.8 | 86 | 2.23 | 4950 | CCOC(=O)N(C)[C@H]1CN(C(=O)N[C@H](C)c2cnc(C(F)(F)F)nc2)N=C1c1ccc(C)cc1 [Compound 4, (S)-4-(N-methyl-N-ethoxycarbonylamino)-3-(4-methylphenyl)-N-((R)-1-(2-(trifluoromethyl)pyrimidin-5-yl)ethyl)-4,5-dihydro-1H-pyrazol-1-carboxamide]
2 | 21.4 μL × min^−1 × mg^−1 proteins | 0.0107 | 64.8 | 90 | 275.63 | 766 | 26.5 | 1.31 | 2210 | 2.8 | 0.92 | 36 | 2.71 | 1450 | Cc1ccc(C2=NN(C(=O)N[C@H](C)c3ccc(C(F)(F)F)nc3)C[C@@H]2N2CCOC2=O)cc1 [Compound 22]

Reference: US12668589B2, “N-formamidopyrazoline derivative as P2X3 receptor antagonist and use thereof” (HANGZHOU WESTAN PHARMACEUTICAL TECHNOLOGY CO., LTD, priority 2020, dated 2026)
